Measurements taken from patent US12226400B2, “Neuroprotective disruption of Kv2.1/syntaxin interaction by small molecules” (UNIVERSITY OF PITTSBURGH-OF THE COMMONWEALTH SYSTEM OF …, priority 2018, dated 2025).

Columns and labels:
NMDA receptors = test: Fura-2 ratiometric Ca2+ imaging during NMDA exposure; assay type: cell-based, rat; conditions: 10 μM cpd5, NMDA 30 μM with 10 μM glycine; ±SEM
Protocol: Intracellular Ca^2+ measurements were performed on the same cortical culture preparations as above, but with 20 DIV cells plated on MatTek glass-bottom 35 mm culture dishes. At this developmental stage, neurons robustly express both GluN2A and GluN2B subunits of the NMDA receptor. Neurons were incubated with the fluorescent Ca^2+ indicator Fura-2 AM ester (5 μM; Invitrogen) with 0.02% Pluronic F-127 (Invitrogen) for 1 h at 37° C. Culture dishes were then mounted on an inverted microscope stage (Olympus) and continuously perfused with a 10 mM HEPES-buffered normal salt solution. Perfusion rate (5 ml/min) was controlled with a gravity flow and a rapid-switching local perfusion system (Warner Instruments). […] A ratio of fluorescence emission (F) at 510 nm in response to excitations at 340 and 380 nm was acquired at 1 Hz (Fambda DG-4 and 10-B SmartShutter, Sutter Instruments) via camera (ORCAER, Hamamatsu) and saved to a computer using HCImage (Hamamatsu). Baseline Ca^2+ signals were recorded for 2 min before the first application of NMDA (30 μM plus 10 μM glycine) with or without 10 μM cpd5 (Cat #MolPort-009-741-732, Molport). […] Peak increases in intracellular calcium concentration were measured by calculating F/Fo (F, peak fluorescence; Fo, average signal across 2 min baseline period). The area under the response for the first 15 min of NMDA application was also calculated.

[1] = tested on: delayed rectifier K+ currents (Kv2.1-mediated) in rat cortical culture neurons; test: Whole-cell patch clamp of delayed rectifier K+ currents after TBOA; assay type: cell-based; conditions: Cpd5 incubation alone, 5 hours total
Protocol: Cortical culture electrophysiology. Whole-cell patch-clamp experiments were performed on rat cortical culture neurons prepared as described in the LDH toxicity experiments. The TBOA treatment was reduced in severity in this experiment to limit extensive cell injury that would prevent adequate patch clamp recordings. Prior to recording, coverslips were treated with 50 μM TBOA in MHB for 2 hr. The treatment was terminated with 3×MHB washes and transferring the coverslip to a separate well containing MHB to rest for 2 hr prior to electrophysiology recordings and to allow for the expression of enhanced currents. For cpd5-treated groups, cells were pre-incubated for 1 hr in 10 μM cpd5 prior to the addition of TBOA. Cpd5 was also present during the TBOA and the post-TBOA incubation phases.
Recordings were carried out using 1.5 mm diameter borosilicate glass electrodes (Sutter Instruments) made from a horizontal pipette puller at 5-7 MΩ. The internal solution contains (in mM): 100 K-gluconate, 10 KCl, 1 MgCl2, 1 CaCl2, 10 HEPES, 11 EGTA, 2.2 ATP, 0.33 GTP. The internal solution was further adjusted to pH 7.2 and to 280 mOsm with the addition of sucrose. The pH adjusted (7.2) external solution was composed of the following (in mM): 115 NaCl, 2.5 KCl, 2.0 MgCl2, 10 HEPES, 10 D-glucose, and 0.25 μM TTX. […]

[2] = biological target: syntaxin 1A / Kv2.1 peptides containing the C1aB region (Homo sapiens, UniProt Q16623); test: Peptide spot array far-Western assay of syntaxin binding to Kv2.1 C1a peptides; parameters: species or system rat
Sequence of syntaxin 1A / Kv2.1 peptides containing the C1aB region (Q16623 whole entry, species assumed, the tested form may be a part): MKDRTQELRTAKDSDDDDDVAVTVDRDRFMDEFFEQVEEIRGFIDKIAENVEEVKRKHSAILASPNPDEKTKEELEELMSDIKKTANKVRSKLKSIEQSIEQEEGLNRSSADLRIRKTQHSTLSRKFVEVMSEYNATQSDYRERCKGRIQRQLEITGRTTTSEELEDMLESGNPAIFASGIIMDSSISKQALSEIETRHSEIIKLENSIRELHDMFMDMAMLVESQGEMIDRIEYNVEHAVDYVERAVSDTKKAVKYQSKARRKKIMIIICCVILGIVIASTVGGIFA
Excerpt: Peptide spot array and far-Western assay. Peptide spot arrays (15 mers) spanning the proximal C-terminus residues 451-540 of rat Kv2.1 were constructed using the Spots-synthesis method. Standard 9-fluorenylmethoxy carbonyl (Fmoc) chemistry was used to synthesize the peptides and spot them onto nitrocellulose membranes prederivatized with a polyethylene glycerol spacer (Intavis). Fmoc protected and activated amino acids were spotted in quadruplicates on 20-30 arrays on 75 by 25 mm membranes using an Intavis MultiPep robot. The nitrocellulose membrane containing the immobilized peptides were rehydrated in Tris-buffered 0.1% Tween 20 (TBST) for 10 min, and then blocked for 1 h at room temperature (RT) with gentle shaking in TBST containing 5% (w/v) nonfat dry milk and then incubated with enriched STX1A protein containing the indicated concentrations of cpd5 for 1 h at RT with gentle shaking. Next, the membrane was incubated in primary antibody for syntaxin 1A (Millipore, catalog #AB5820-50UL, RRID:AB_2216165) for 2 h at RT with gentle shaking, followed by washing with TBST. Finally, the membrane was incubated in secondary antibody (goat anti-rabbit DyLight 800, catalog #355571, Thermo Fisher Scientific) for 45 min, washed for 3 times 5 min in TBST, and visualized by infrared fluorescence (Li-Cor). Similar procedures were followed for the alanine scan study with 9-mers.

[3] = tested on: primary rat cortical neuron cultures; test: LDH toxicity assay screening for innate toxicity; assay type: cell-based; conditions: up to 30 μM for 24 hr

In the case of `COc1ccc(CNC(=O)Nc2cccc(-c3nc4ccccc4s3)c2)cc1OC` [cpd5, 3-[3-(1,3-benzothiazol-2-yl)phenyl]-1-[(3,4-dimethoxyphenyl)methyl]urea], the “NMDA-induced Ca2+ response, AUC treated” value (NMDA receptors) is reported as 104.67±1.98 % Control, the “NMDA-induced Ca2+ response, F-peak treated” value (NMDA receptors) is reported as 101.26±1.47 % Control and the “basal K+ current densities” value [1] is reported as “no significant effects”. For the same molecule, the “reduction of Kv2.1 peptides binding to syntaxin at peak values” ([2]; Cpd5 100 μM) was “up to 60%”, the IC50 ([2]; percent inhibition compared to 0.1% DMSO, variable slope fit, read-out: IC50 for inhibition of syntaxin binding to peptides 22-28 (full C1aB domain) of the peptide array) was 5.5 µM and the “innate toxicity (LDH)” value [3] was “no innate toxicity”. The “innate toxicity (LDH)” value ([3]; listed as Cpd5) was “No neurotoxicity was observed”.
